# In patent US11517630B2, “Methods and compositions for regulating gene expression” (Children's Medical Center Corporation, priority 2005, dated 2022):
# Assays:
# [1] = system: mutant (TGA-containing) Apo CII-luc fusion reporter in FG293 cells; assay: In vitro luciferase assay: suppression of translational termination in FG293 cells transduced with mutant Apo CII-luc lentiviral vector; assay type: cell-based, human; conditions: for fold of induction: 5 μg/ml; for % of wild-type luc activity: 200 μg/ml; for ability to induce luciferase expression (suppression of translation termination codons): 0 to 1000 μg/ml, mutant luc fusion
# Protocol: FG 293 cells were infected with viral supernatants at a multiplicity of infection (MOI) of 10. After 72 hours, cells were then split into six well plates, exposed to various concentrations of G1418 for 48 hours, and lysed. Protein extracts were then assayed for luciferase expression using the Promega Luciferase Assay System.
# (§1) To facilitate quantitative measurement of both spontaneous read-through of specific termination codon configurations and the ability of specific antibiotics to suppress translational termination, a luciferase (luc) reporter gene was generated in which the first five codons of either WT mutant MIA-containing) Apo CII sequences were fused to luc coding sequences, and the resulting sequences were introduced into a standard lentiviral vector (FIG. 1B). High-titer virus generated from the vectors was used to infect human FG293 cells at a multiplicity of infection (MOI) of 10, so that virtually 100% of the cells would be stably transduced. Cells were then split into six well plates, exposed to varying concentrations of the aminoglycoside (G418) for 48 hours, and then lysed and assayed for luc expression. […] In contrast, cells transduced by vectors encoding the mutant Apo CII-luc expressed only low levels of luc in the absence of G418 (approximately 1.2% the activity of the wild type), but could be induced to strongly express luc by the addition of the antibiotic (FIG. 2B). […] The efficiency of suppression of translational termination was extremely high (over 70% of the level of wild-type reporter expression observed in the absence of the nonsense codon).
# as §1, with “(TGA-containing)” for “MIA-containing)”
# One of the expected characteristics of the gene regulation system described here is the ability to rapidly achieve induction of transgene expression, since (as indicated above) transcription is constitutive and therefore induction of gene expression should depend only upon the restoration of fall translation of the transgene coding sequences. To address this issue, we employed the transduced cells described above, and measured the level of reporter activity after G418 administration (200 μg/ml) as a function of time.
# Compounds were tested in vitro using stable cell lines generated via the infection of FG293 cells with lentiviral vectors carrying either WT or mutant Apo CII luc sequences. The aminoglycosides were tested over a concentration range from 0 to 1000 μg/ml.
# [2] = system: mutant Apo CII-luc in murine lung tissue; assay: In vivo luc induction in murine lung after intratracheal delivery of lentiviral vector, bioluminescent imaging; conditions: 1.5 mg daily, 4 days, average of five mice
# Protocol: For intratracheal infections, nude mice were anaesthesized and then 100 μl of concentrated virus was delivered upon normal inhalation via a blunt-ended 16-gauge needle inserted in such a way to depress the tongue.
# Prior to imaging, mice were anaesthesized and injected with 150 μl luciferin (30 mg/ml) (Xenagen, Alameda, Calif.). A series of bioluminescent images were then taken for up to 30 minutes using the Xenogen IVIS imager. Photon output was quantified at the plateau of the time-course using the Living Image software. Induction in fold was calculated based on the photon output in the animals before and after drug treatment.
# To further establish the general applicability of the gene […] system, we next asked whether gene regulation at the level of translation could be readily accomplished in the in vivo setting. In a first animal model, intratracheal delivery (see Materials and Methods) of a lentiviral vector carrying WT or mutant Apo CII-luc sequences was utilized in order to assess the ability to regulate luc expression in murine lung tissue via aminoglycoside administration. Five days post transduction, prior to administration of aminoglycoside, mice were imaged for luc expression using the Xenogen IVIS non-invasive bioluminescent imager (29). […]
# [3] = Acute toxicity at concentrations used to regulate gene expression in cell lines and animals
# Description: Overall, the system described here represents a remarkably simple means of controlling the expression of genes in mammalian cells that should have immediate experimental applications. While the range of inducibility obtainable with the system (in some cases over 60 fold) is considerably more limited than that of gone regulation systems based on the control of transcription or RNA self-cleavage, the ability to fine-tune the basal and induced levels of gene expression via use of specific termination codons and adjacent sequences may mitigate this limitation in many experimental situations. […] Similarly, others have shown that G418 can be used at relatively non-toxic doses to suppress nonsense mutations in cell lines and in animal models of inherited disease (25, 35). […] The availability of such molecules for experimental studies in the future should further expand the utility of translation-based gene regulation strategies.
# [4] = system: mutant Apo CII-luc in hematopoietic cells; assay: In vivo luc induction in murine bone marrow transplantation model (transduced hematopoietic stem cells); design: species or system mice; conditions: 1.5 mg/day for 3.5 days, four mutant luc animals
# Protocol: Purified HSC were obtained by isolating bone marrow SP cells using fluorescence activated cell sorting after Hoechst staining as previously described (10), with some modifications. Briefly, femurs and tibias from mice were homogenized, and the bone marrow cells were filtered through 70 μm nylon mesh and washed in PBS containing 2% FCS and 0.5% Sodium Azide. Cells were then resuspended in HBSS containing 2% FCS, 10 mM Hepes buffer and antibiotics (all from Gibco, Grand Island, N.Y.) and 8.8 μg/ml Hoechst 33342 (Molecular Probes, Eugene, Oreg.) at a cell concentration of 5×10^6/ml. Following incubation for 90 min at 37° C., cells were washed once and further purified by using a gradient of Ficoll-Paque™ Plus (Amersham Biosciences AB, Uppsala) to remove red blood cells. Purified marrow cells were then sorted using a MoFlo high speed cell sorter (DakoCytomation, Fort Collins, Col.). Except when specified, cells were kept on ice during the entire procedure. […]
# Prior to imaging, mice were anaesthesized and injected with 150 μl luciferin (30 mg/ml) (Xenagen, Alameda, Calif.). […] Photon output was quantified at the plateau of the time-course using the Living Image software. Induction in fold was calculated based on the photon output in the animals before and after drug treatment. […]
# [5] = mice; cited from earlier work
compound,measurement,setting,value
CC(C)(C)c1ccc(OCC(=O)Nc2cccc(C(=O)O)c2)cc1 [3-[2-(4-tert-butyl-phenoxyl)-acetylamino]-benzoic acid],fold of induction,[1]; FG293 cells,about 14%
"CCC(C)(C)c1ccc(OCC(=O)Nc2cccc(C(=O)O)c2)cc1 [3-{2-[4-(1,1-dimethyl-propyl)-phenoxyl]acetylamino}-benzoic acid]",fold of induction,[1]; FG293 cells,about 24%
CN[C@@H]1[C@@H](O)[C@@H](O[C@@H]2[C@@H](O)[C@H](O[C@H]3O[C@H]([C@@H](C)O)[C@@H](O)[C@H](O)[C@H]3N)[C@@H](N)C[C@H]2N)OC[C@]1(C)O [G418],% of wild-type luc activity,[1]; 1 hour post induction,1.4%
same,% of wild-type luc activity,[1]; 6 hours post induction,6.1%
same,% of wild-type luc activity,[1]; 12 hours post induction,25.3%
same,% of wild-type luc activity,[1]; 24 hours post induction,38.1%
same,% of wild-type luc activity,[1]; 48 hours post exposure,51.3%
same,"efficiency of suppression of translational termination, % of wild-type reporter expression","[1]; 300 μg/ml, 48 hours, FG293 cells",over 70%
same,"increase in reporter (luc) expression relative to the uninduced state, maximum induction","[1]; 300 μg/ml, 48 hours, FG293 cells, mutant Apo CII-luc",approximately 60 fold
same,fold induction at 200 µg/mL,"[1]; Homo sapiens, 48 h, read-out: fold induction of luc (maximal induction)",60
same,"luciferase expression, % of level in WT luc mice",[2],27%
same,acute toxicity at concentrations used,[3],not acutely toxic
same,"induced level, % of expression in WT luc mice",[4],~51%
same,fold induction at 1.5 mg,"[4]; Mus musculus, Hematopoietic stem cell, 84 h, read-out: average fold induction of luc expression",65
NCC[C@H](O)C(=O)N[C@@H]1C[C@H](N)[C@@H](O[C@H]2O[C@H](CN)[C@@H](O)[C@H](O)[C@H]2O)[C@H](O)[C@H]1O[C@H]1O[C@H](CO)[C@@H](O)[C@H](N)[C@H]1O [amakacin],ability to induce luciferase expression (suppression of translation termination codons),"[1]; 48 hours, FG293 cells",only weak induction
NC[C@@H]1O[C@H](O[C@H]2[C@@H](O)[C@H](O[C@@H]3[C@@H](O)[C@H](N)C[C@H](N)[C@H]3O[C@H]3O[C@H](CO)[C@@H](O)[C@H](O)[C@H]3N)O[C@@H]2CO)[C@H](N)[C@@H](O)[C@@H]1O [paromomycin],ability to induce luciferase expression (suppression of translation termination codons),"[1]; 48 hours, FG293 cells",only weak induction
NC[C@H]1O[C@H](O[C@H]2[C@H](O)[C@@H](O[C@H]3O[C@H](CO)[C@@H](O)[C@H](N)[C@H]3O)[C@H](N)C[C@@H]2N)[C@H](N)C[C@@H]1O [tobramycin],ability to induce luciferase expression (suppression of translation termination codons),"[1]; 48 hours, FG293 cells",only weak induction
gentamicin,ability to induce luciferase expression (suppression of translation termination codons),"[1]; 48 hours, FG293 cells",only weak induction
gentamycin sulfate,effective dosage,[5],17 mg/kg
